Entries after “also recorded” stand apart in the source; their conditions may differ.
Experiments:
[1] = test system: CYP isozymes 1A2, 2C9, 2C19, and 2D6; assay: CYP suppression compared with comparative examples (Table 3); assay type: in vitro ADME; conditions: result in words
Method: (§1) To evaluate the CYP (cytochrome P450)-suppressing activity of the compounds prepared in the examples of the invention, the following experiment was performed.
(§2) The analysis of CYP1A2, 2C19, and 3A4 suppressing activity was performed by using a BD GENTEST (459100, 459400, and 459500) kit, and the analysis of CYP 2C9- and 2D6-suppressing activity was performed by using an Invitrogen (P2861 and P2862) kit.
(§3) When the Invitrogen kit was used, the compounds of the present invention were diluted in Vivid CYP450 reaction buffer (1×) at the final concentration of 2.5×. The P450 BACULOSOMES sample and Regeneration system (100×) were diluted in Vivid CYP450 reaction buffer (1×) at different proper concentrations. 80 μL of the compound of the invention (2.5×) and […] of the diluted P450 BACULOSOMES sample mixture were mixed in a U-bottom 96-well plate, followed by pre-incubation for 10 minutes. Vivid CYP450 Substrate and NADP+ (100×) were diluted in Vivid CYP450 reaction buffer (1×) at a desired concentration, respectively, according to their corresponding types of CYP450 and substrates. 20 μL of Substrate-NADP+ mix was loaded in the plate when the pre-incubation had been completed, followed by reaction for 1 hour. Upon completion of the reaction, the reaction mixture was transferred in a white plate and fluorescent wavelength was measured with a microplate reader (2C9 excitation 415 nm, emission 460 nm, 2D6 excitation 400 nm, emission 502 nm).
(§4) When the BD GENTEST kit was used, the compounds of the present invention were diluted in acetonitrile at the final concentration of 50×. The NADPH-Cofactor mix was prepared by diluting the Cofactor, G6PDH, and control protein provided by the kit in DW according to the instructed concentration. 4 μL of the compound of the example (50×) was mixed with 96 μL of NADPH-Cofactor mix in a 96-well plate, followed by pre-incubation in a 37° C. incubator for 10 minutes.
(§5) The enzyme/substrate mixture was diluted in the buffer (0.5 M potassium phosphate, pH 7.4) provided by the kit according to the instructed concentration. Each CYP450 enzyme substrate was diluted in DW at a desired concentration respectively according to the corresponding types of CYP450. 100 μL of the enzyme/substrate mixture was loaded in the plate when the pre-incubation had been completed, followed by reaction in a 37° C. incubator for 15 minutes (1A2) and 30 minutes (3A4 and 2C19). Upon completion of the reaction, the mixture was transferred to a white plate, and the fluorescent wavelength was measured with a microplate reader (1A2, 2C19 excitation 410 nm, emission 460 nm; 3A4, excitation 409 nm, emission 530 nm).
(§6) The test results were calculated by the following formula:
(§7) (1−(fluorescence value of the test material/fluorescence value of the vehicle))×100%.

CYP 2C9 = biological target: T1, CYP 2C9 (Homo sapiens, UniProt P11712); assay: CYP (cytochrome P450)-suppressing effect, Invitrogen Vivid kit; assay type: in vitro ADME
T1 construct: purchased Invitrogen P2861
T1 sequence (P11712 whole entry): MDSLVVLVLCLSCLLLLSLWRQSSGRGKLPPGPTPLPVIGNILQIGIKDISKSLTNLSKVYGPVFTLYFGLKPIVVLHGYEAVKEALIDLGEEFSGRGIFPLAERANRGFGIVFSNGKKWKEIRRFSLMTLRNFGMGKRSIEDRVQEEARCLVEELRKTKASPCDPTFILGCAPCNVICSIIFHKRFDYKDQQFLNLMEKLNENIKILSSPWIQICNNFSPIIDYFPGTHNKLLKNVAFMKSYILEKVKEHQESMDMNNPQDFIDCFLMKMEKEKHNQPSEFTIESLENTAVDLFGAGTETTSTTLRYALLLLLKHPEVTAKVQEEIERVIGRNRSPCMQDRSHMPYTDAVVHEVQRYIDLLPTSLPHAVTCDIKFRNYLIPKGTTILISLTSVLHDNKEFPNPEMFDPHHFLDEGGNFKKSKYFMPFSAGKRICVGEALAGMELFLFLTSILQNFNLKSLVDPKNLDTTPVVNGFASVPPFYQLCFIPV
Method: as §1, §2, §3, §6, §7

CYP 2D6 = biological target: T2, CYP 2D6 (Homo sapiens, UniProt P10635); assay: as above; assay type: in vitro ADME
T2 construct: purchased Invitrogen P2862
T2 sequence (P10635 whole entry): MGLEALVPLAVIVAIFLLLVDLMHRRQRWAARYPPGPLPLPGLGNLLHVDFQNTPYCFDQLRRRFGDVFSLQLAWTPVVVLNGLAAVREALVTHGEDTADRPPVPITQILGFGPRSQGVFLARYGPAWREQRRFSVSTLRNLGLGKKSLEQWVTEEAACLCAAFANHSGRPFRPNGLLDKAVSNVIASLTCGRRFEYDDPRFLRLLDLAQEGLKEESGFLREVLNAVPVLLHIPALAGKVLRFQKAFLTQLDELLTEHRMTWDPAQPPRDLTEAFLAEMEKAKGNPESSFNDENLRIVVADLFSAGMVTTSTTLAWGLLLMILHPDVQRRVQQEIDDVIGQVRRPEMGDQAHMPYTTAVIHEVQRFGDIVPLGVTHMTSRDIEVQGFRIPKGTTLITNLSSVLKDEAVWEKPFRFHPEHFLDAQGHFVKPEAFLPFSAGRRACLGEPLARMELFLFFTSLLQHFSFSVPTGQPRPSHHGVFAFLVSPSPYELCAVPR
Method: as §1, §2, §3, §6, §7

CYP 2C19 = biological target: T3, CYP 2C19 (Homo sapiens, UniProt P33261); assay: CYP (cytochrome P450)-suppressing effect, BD GENTEST kit; assay type: in vitro ADME
T3 construct: purchased BD GENTEST 459400
T3 sequence (P33261 whole entry): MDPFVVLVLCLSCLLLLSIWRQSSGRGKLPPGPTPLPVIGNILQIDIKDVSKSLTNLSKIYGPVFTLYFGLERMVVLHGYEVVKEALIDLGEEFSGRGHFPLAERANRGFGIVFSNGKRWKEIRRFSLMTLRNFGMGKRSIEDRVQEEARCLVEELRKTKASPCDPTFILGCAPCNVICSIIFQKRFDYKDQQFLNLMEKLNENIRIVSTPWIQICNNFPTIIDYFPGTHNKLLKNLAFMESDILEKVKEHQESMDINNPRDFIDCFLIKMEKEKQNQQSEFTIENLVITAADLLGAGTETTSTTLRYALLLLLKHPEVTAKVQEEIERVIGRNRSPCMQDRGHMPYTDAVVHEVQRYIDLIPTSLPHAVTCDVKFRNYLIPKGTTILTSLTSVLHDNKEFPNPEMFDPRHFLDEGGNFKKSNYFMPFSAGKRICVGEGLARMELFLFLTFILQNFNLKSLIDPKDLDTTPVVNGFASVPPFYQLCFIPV
Method: as §1, §2, §4, §5, §6, §7

CYP 3A4 = biological target: T4, CYP 3A4 (Homo sapiens, UniProt P08684); assay: as above; assay type: in vitro ADME
T4 construct: purchased BD GENTEST 459500
T4 sequence (P08684 whole entry): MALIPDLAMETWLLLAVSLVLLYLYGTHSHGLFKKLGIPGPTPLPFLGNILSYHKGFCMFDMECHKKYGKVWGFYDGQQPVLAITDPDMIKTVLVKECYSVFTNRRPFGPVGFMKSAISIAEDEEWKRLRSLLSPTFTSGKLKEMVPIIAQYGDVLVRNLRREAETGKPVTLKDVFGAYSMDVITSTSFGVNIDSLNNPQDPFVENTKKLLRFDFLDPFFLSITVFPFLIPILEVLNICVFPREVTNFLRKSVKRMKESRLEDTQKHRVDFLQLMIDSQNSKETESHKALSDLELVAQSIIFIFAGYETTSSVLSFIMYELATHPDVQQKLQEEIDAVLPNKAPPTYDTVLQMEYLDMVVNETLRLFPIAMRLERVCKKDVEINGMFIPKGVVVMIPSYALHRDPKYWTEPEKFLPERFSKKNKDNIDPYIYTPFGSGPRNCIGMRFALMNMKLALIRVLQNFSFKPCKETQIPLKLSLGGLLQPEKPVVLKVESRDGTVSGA
Method: as §1, §2, §4, §5, §6, §7

CYP1A2 = biological target: T5, CYP1A2 (Homo sapiens, UniProt P05177); assay: as above; assay type: in vitro ADME
T5 construct: purchased BD GENTEST 459100
T5 sequence (P05177 1-516): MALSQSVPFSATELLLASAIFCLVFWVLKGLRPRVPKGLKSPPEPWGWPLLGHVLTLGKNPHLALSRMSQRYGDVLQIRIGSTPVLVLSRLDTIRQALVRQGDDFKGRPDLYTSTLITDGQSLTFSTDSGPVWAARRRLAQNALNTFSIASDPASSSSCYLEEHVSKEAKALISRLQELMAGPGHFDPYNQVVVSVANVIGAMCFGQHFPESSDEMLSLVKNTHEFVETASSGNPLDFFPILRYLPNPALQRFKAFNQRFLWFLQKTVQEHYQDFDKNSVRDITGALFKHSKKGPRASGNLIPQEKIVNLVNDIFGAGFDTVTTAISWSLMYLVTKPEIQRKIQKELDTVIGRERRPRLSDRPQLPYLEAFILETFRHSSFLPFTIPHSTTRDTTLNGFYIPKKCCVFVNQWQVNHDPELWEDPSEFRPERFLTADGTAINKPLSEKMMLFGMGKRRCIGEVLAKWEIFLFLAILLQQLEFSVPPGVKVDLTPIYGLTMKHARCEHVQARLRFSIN
Method: as §1, §2, §4, §5, §6, §7

[2] = biological target: T6, PPARG (peroxisome proliferator activated receptor-gamma), GST-PPARG-LBD (Homo sapiens, UniProt P37231); assay: LanthaScreen TR-FRET PPARG Competitive Binding Assay; set-up: key: “+” indicates the degree of the binding activity, and as the number of “+” increases, the binding activity is stronger; ++: “+” indicates the degree of the binding activity, and as the number of “+” increases, the binding activity is stronger; +++: “+” indicates the degree of the binding activity, and as the number of “+” increases, the binding activity is stronger; ++++: “+” indicates the degree of the binding activity, and as the number of “+” increases, the binding activity is stronger; conditions: degree of binding activity
T6 construct: 15 μL of 5 nM GST-PPARG-LBD and 5 nM Tb-GST-antibody were added; purchased Invitrogen PV4894
T6 sequence (P37231 238-503 limits assumed): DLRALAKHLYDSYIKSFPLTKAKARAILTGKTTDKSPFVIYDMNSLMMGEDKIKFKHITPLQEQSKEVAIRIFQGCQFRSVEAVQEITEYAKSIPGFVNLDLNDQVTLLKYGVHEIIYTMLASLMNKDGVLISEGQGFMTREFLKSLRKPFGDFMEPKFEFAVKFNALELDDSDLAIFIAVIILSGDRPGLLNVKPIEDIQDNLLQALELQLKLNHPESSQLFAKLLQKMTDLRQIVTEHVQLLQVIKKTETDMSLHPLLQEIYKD
Outline: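 GST-tagged human PPARG LBD in a TR-FRET competitive binding kit, 1 h at room temperature. Read-out is the 518/488 nm emission ratio (340 nm excitation); activity = 100% − compound ratio/vehicle ratio, compared with rosiglitazone.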

[3] = biological target: T7, HERG (Human Ether-a-go-go-Related Gene) channel (Homo sapiens, UniProt Q12809); assay: Evaluation of cardiotoxicity, patch-clamp on HEK293 cells expressing HERG channel; assay type: cell-based; conditions: HERG peak tail current
T7 construct: expressed in transfected cells; host or cells: HEK293
T7 sequence (Q12809 whole entry): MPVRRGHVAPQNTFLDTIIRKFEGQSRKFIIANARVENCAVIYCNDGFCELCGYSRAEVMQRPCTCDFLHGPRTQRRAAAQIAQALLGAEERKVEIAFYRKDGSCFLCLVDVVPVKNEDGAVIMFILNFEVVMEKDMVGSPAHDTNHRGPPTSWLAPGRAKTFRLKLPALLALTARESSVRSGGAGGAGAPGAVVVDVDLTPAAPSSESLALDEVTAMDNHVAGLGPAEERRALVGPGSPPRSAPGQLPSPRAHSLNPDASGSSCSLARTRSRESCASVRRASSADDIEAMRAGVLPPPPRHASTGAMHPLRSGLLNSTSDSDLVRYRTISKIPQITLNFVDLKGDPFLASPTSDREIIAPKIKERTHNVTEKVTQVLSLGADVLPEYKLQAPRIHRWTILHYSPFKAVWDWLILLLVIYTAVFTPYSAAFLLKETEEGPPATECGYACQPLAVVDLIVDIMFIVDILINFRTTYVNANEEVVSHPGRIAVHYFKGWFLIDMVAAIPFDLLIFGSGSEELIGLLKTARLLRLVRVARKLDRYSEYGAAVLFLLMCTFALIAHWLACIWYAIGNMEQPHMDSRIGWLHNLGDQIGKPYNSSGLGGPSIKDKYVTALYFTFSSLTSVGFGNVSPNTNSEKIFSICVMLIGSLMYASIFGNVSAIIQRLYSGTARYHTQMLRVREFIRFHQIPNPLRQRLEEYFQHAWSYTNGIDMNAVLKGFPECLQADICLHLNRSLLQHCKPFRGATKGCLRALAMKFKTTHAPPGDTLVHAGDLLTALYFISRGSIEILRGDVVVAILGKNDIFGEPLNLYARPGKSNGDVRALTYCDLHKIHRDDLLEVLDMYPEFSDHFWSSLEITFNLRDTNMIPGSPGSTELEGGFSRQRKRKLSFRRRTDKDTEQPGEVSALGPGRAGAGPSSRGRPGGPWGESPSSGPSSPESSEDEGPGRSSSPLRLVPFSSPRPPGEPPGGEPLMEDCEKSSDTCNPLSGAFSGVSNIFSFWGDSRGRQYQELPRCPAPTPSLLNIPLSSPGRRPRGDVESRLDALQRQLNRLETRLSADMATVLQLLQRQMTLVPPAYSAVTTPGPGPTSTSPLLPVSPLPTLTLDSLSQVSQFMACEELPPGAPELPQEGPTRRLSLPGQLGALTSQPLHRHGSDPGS
Method: HEK293 cells expressing HERG (Human Ether-a-go-go-Related Gene) channel safely were cultured in MEM (Minimum Essential Medium) supplemented with 10% fetal bovine serum (FBS), 1 mM sodium pyruvate, 0.1 mM non-essential amino acid solution, 100 units/ml penicillin-streptomycin, 100 μg/ml streptomycin sulfate and 100 μg/ml zeocin under the condition of air:CO2=95:5. When the cells were grown to 60-80% confluency, the cells were loaded in the medium supplemented with 0.25% trypsin and 0.02% EDTA (ethylenediaminetertraacetic acid) for 3 minutes. The cells were then washed with a fresh medium and then dispensed on a new plastic culture dish. For the electrophysiological record, the cells were seeded on a glass cover slip of 5 mm in diameter, followed by incubation in a 24-well plate for 5-24 hours. Then, the cells were transferred into the recording chamber.
The current value of all the cells was measured by the conventional patch-clamp technique or Port-a-Patch (Nanion, Germany) semiautomatic technique. The pH of the external bath solution containing 136 mM NaCl, 5.4 mM KCl, 1.8 mM CaCl2, 1 mM MgCl2, 10 mM glucose, and 10 mM HEPES (4-(2-hydroxyethyl)-1-piperazineethanesulfonic acid) was adjusted to 7.4 using NaOH. The pH of the intracellular pipette solution containing 130 mM KCl, 1 mM MgCl2, 10 mM EGTA (ethylene glycol tetraacetic acid), 5 mM Mg-ATP, and mM HEPES was adjusted to 7.2 using KOH.
In the conventional patch-clamp technique, the patch pipette was pulled by a PP-83 pipette puller (Narishige, Tokyo, Japan), so that it had 2-4 MΩ of resistance in the external bath solution. The ionic current was recorded by using EPC7 pulse amplifier (HEKA electronic, Germany). The voltage-clamp amplification was regulated using the pClamp computer program (Axon Instruments, USA), and the obtained data were analyzed. During the recording, the solution above was continually spread on HEK293 cells in the chamber. For the recording, the Port-a-Patch (Nanion, Germany) semiautomatic patch system was used, and the amplifier used herein was EPC10.
The membrane potential was maintained at −80 mV, which was changed to +20 mV for 4 seconds, then changed to −50 mV for 6 seconds and then maintained again at −80 mV. The changes were made every 25 seconds.
To obtain the concentration-reaction curve in the presence of the drug, dose-dependent inhibition was entered into the Hill formula represented by mathematical formula 1 below.
In mathematical formula 1, Idrug indicates the peak tail current in the presence of a drug, Icontrol indicates the maximum peak tail current in the absence of a drug, D indicates the concentration of a drug, h indicates Hill constant, and IC50 indicates the concentration when the half-maximum peak tail current was suppressed.

SMILES	suppression of CYP isozymes 1A2, 2C9, 2C19, and 2D6 compared with SR1664 and SR1824 [1]	CYP(10 μL, %) 2C9 (CYP 2C9) [%]	CYP(10 μL, %) 2D6 (CYP 2D6) [%]	CYP(10 μL, %) 2C19 (CYP 2C19) [%]	CYP(10 μL, %) 3A4 (CYP 3A4) [%]	CYP(10 μL, %) 1A2 (CYP1A2) [%]	Binding assay (1 μLM) [2]	IC50 [3] [µM]
C[C@H](NC(=O)c1ccc2c(c1)CCCN2Cc1ccc(-c2ccccc2C(N)=O)cc1F)c1ccc2ccccc2c1 [Example 115, (S)-1-((2′-carbamoyl-3-fluoro-[1,1′-biphenyl]-4-yl)methyl)-N-(1-(naphthalene-2-yl)ethyl)-1,2,3,4-tetrahydroquinoline-6-carboxamide]	less than the compounds of the comparative examples; also recorded: less strongly than the compounds of the Comparative Examples	63.87	95.56	59.33	77.73	97.62	+++	
C[C@H](NC(=O)c1ccc2c(c1)CCCN2Cc1cccc(-c2ccccc2C(=O)O)c1)c1ccc(C#N)cc1 [Example 118, (S)-3′-((6-((1-(4-cyanophenyl)ethyl)carbamoyl)-3,4-dihydroquinoline-1(2H)-yl)methyl)-[1,1′-biphenyl]-2-carboxylic acid]	less than the compounds of the comparative examples; also recorded: less strongly than the compounds of the Comparative Examples	52.02	94.83	74.03	71.21	101.50	+	
C[C@H](NC(=O)c1ccc2c(c1)CCCN2Cc1cccc(-c2ccccc2C(N)=O)c1)c1ccc([N+](=O)[O-])cc1 [Example 123, (S)-1-((2′-carbamoyl-[1,1′-biphenyl]-3-yl)methyl)-N-(1-(4-nitrophenyl)ethyl)-1,2,3,4-tetrahydroquinoline-6-carboxamide]	less than the compounds of the comparative examples; also recorded: less strongly than the compounds of the Comparative Examples	59.36	82.48	58.85	52.65	102.45	+++	
C[C@H](NC(=O)c1ccc2c(c1)CCCN2Cc1cccc(-c2ccccc2C(N)=O)c1F)c1ccc([N+](=O)[O-])cc1 [Example 131, (S)-1-((2′-carbamoyl-2-fluoro-[1,1′-biphenyl]-3-yl)methyl)-N-(1-(4-nitrophenyl)ethyl)-1,2,3,4-tetrahydroquinoline-6-carboxamide]	less than the compounds of the comparative examples; also recorded: less strongly than the compounds of the Comparative Examples	52.84	86.92	54.84	55.88	94.17	+++	
C[C@H](NC(=O)c1ccc2c(c1)CCCN2Cc1cc(-c2ccccc2C(N)=O)ccc1F)c1ccc([N+](=O)[O-])cc1 [Example 139, (S)-1-((2′-carbamoyl-4-fluoro-[1,1′-biphenyl]-3-yl)methyl)-N-(1-(4-nitrophenyl)ethyl)-1,2,3,4-tetrahydroquinoline-6-carboxamide]	less than the compounds of the comparative examples; also recorded: less strongly than the compounds of the Comparative Examples	63.24	80.63	53.50	60.95	94.00	+++	
C[C@H](NC(=O)c1ccc2c(c1)CCCN2Cc1ccccc1-c1ccc(C(=O)O)cc1)c1ccc([N+](=O)[O-])cc1 [Example 155, (S)-2′-((6-((1-(4-nitrophenyl)ethyl)carbamoyl)-3,4-dihydroquinoline-1(2H)-yl)methyl)-[1,1′-biphenyl]-4-carboxylic acid]							+	73.6
C[C@H](NC(=O)c1ccc2c(c1)CCCN2Cc1ccccc1-c1ccc(C(=O)O)cc1)c1ccc2ccccc2c1 [Example 156, (S)-2′-((6-((1-(naphthalene-2-yl)ethyl)carbamoyl)-3,4-dihydroquinoline-1(2H)-yl)methyl)-[1,1′-biphenyl]-4-carboxylic acid]							+	55.2
C[C@H](NC(=O)c1ccc2c(c1)CCCN2Cc1ccccc1-c1ccc(C(=O)O)cc1)c1ccc(C#N)cc1 [Example 157, (S)-2′-((6-((1-(4-cyanophenyl)ethyl)carbamoyl)-3,4-dihydroquinoline-1(2H)-yl)methyl)-[1,1′-biphenyl]-4-carboxylic acid]							++	42.7

Source: patent publication US20160355483A1, “COMPOUND BINDING TO PPARG BUT NOT ACTING AS PROMOTER AND PHARMACEUTICAL COMPOSITION FOR TREATING PPARG-RELATED DISEASES CONTAINING SAME AS ACTIVE INGREDIENT” (Hyundai Pharm Co., Ltd., priority 2014, published 2016)
